# How the values were obtained:
# Format in all cases: functional
# L1210/Adr = assay: In vitro cytotoxicity against L1210/Adr cancer cell lines.; conditions: Mus musculus, read-out: TD50 (the source's name)
# L1210 = assay: In vitro cytotoxicity against L1210 cancer cell lines.; conditions: Mus musculus, read-out: TD50 (the source's name)
# CHO = assay: In vitro cytotoxicity against CHO cancer cell lines.; conditions: Cricetulus griseus, read-out: TD50 (the source's name)
# KB = assay: In vitro cytotoxicity against KB cancer cell lines.; conditions: Homo sapiens, read-out: TD50 (the source's name)
# MCF7 = assay: In vitro cytotoxicity against MCF-7 cancer cell lines.; conditions: Homo sapiens, read-out: TD50 (the source's name)
# HCT-116 = assay: In vitro cytotoxicity against HCT116 cancer cell lines.; conditions: Homo sapiens, read-out: TD50 (the source's name)
SMILES,CC50 (L1210/Adr),CC50 (L1210),CC50 (CHO),CC50 (KB),CC50 (MCF7),CC50 (HCT-116)
COCn1cc(NC(=O)c2cc(NC3=CC4=NCCc5cn(C)c(c54)C3=O)cn2COC)cc1C(=O)NCCCN(C)C,3.8 µg/mL,8.2 µg/mL,17.5 µg/mL,1.9 µg/mL,0.5 µg/mL,6.1 µg/mL
COCn1cc(NC(=O)c2cc(NC(=O)c3cc(NC4=CC5=NCCc6cn(C)c(c65)C4=O)cn3COC)cn2COC)cc1C(=O)NCCCN(C)C,2.8 µg/mL,3.3 µg/mL,0.9 µg/mL,0.4 µg/mL,0.2 µg/mL,2.1 µg/mL
CCOC(=O)c1cc(NC2=CC3=NCCc4cn(C)c(c43)C2=O)cn1COC,1 µg/mL,2 µg/mL,0.7 µg/mL,0.5 µg/mL,0.5 µg/mL,0.4 µg/mL
COc1cccc2c1C(=O)c1c(O)c3c(c(O)c1C2=O)C[C@@](O)(C(=O)CO)C[C@@H]3O[C@H]1C[C@H](N)[C@H](O)[C@H](C)O1 [DOXORUBICIN],0.3 µg/mL,0.02 µg/mL,0.05 µg/mL,0.02 µg/mL,0.2 µg/mL,0.17 µg/mL
COCn1cc(NC2=CC3=NCCc4cn(C)c(c43)C2=O)cc1C(=O)NCCCN(C)C,2.5 µg/mL,3.8 µg/mL,49.2 µg/mL,0.5 µg/mL,0.4 µg/mL,5.8 µg/mL
CCOC(=O)c1cc(NC(=O)c2cc(NC3=CC4=NCCc5cn(C)c(c54)C3=O)cn2COC)cn1COC,3.3 µg/mL,4.9 µg/mL,4.2 µg/mL,2.3 µg/mL,3.3 µg/mL,1.7 µg/mL
CCOC(=O)c1cc(NC(=O)c2cc(NC(=O)c3cc(NC4=CC5=NCCc6cn(C)c(c65)C4=O)cn3COC)cn2COC)cn1COC,2.5 µg/mL,1.3 µg/mL,4.9 µg/mL,1.4 µg/mL,4.7 µg/mL,5.2 µg/mL
